Assays:
[1] = target: GDP-bound KRAS wild-type protein (Homo sapiens, UniProt P01116); experiment: Binding to KRAS by surface plasmon resonance (SPR), dissociation constant KD; conditions: 1:1 binding model
In short: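 SPR, 30°C: Avi-biotin RAS·GDP captured via Biotin CAPture (~100–300 RU); running buffer HBS pH 7.4, 1 mM DTT, 10 mM MgCl2, 0.01% Tween 20, 10 µM GDP, 4% DMSO. Single-cycle kinetics, 100 µL/min, 75 s injections; 1:1 model → KD.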

[2] = target: GDP-bound NRAS wild-type protein (Homo sapiens, UniProt P01111); experiment: Binding to NRAS by surface plasmon resonance (SPR), KD and KD ratio to KRAS; conditions: ratio of KD for GDP-bound NRAS wild-type protein to KD for KRAS
In short: (§1)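 Single-cycle kinetics on GDP-loaded biotin-Avi RAS captured to ~100–300 RU; 75 s ascending injections, 100 µL/min, 30°C. HBS pH 7.4 + 10 mM MgCl2/10 µM GDP/4% DMSO. 1:1 fit, KD.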

[3] = target: HRAS wild-type protein (Homo sapiens, UniProt P01112); experiment: Binding to HRAS by surface plasmon resonance (SPR), KD and KD ratio to KRAS; conditions: ratio of KD for HRAS wild-type protein to KD for KRAS
In short: as §1

[4] = tested on: human lung cancer strain NCI-H441; experiment: NCI-H441 cell proliferation inhibitory activity (CellTiter-Glo, 4 days); type: cell-based; conditions: NCI-H441 cells, 4 days, read-out: NCl-H441 IC50
In short: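 Proliferation was scored by […] measured after the reagent was added to cultures kept at 37°C in 5% carbon dioxide.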

Chain of GDP-bound KRAS wild-type protein (P01116 1-188 isoform P01116-2): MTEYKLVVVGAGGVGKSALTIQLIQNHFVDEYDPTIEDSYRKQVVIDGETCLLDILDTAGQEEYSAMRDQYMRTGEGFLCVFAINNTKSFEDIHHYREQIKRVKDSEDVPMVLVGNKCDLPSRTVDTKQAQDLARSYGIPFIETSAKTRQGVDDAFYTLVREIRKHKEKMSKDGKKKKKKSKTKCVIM
Chain of HRAS wild-type protein (P01112 whole entry): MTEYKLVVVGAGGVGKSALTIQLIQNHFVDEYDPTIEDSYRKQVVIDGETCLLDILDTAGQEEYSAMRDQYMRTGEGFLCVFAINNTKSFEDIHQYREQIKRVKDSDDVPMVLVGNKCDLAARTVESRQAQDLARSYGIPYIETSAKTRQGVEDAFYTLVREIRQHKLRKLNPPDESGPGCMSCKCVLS
Chain of GDP-bound NRAS wild-type protein (P01111 whole entry): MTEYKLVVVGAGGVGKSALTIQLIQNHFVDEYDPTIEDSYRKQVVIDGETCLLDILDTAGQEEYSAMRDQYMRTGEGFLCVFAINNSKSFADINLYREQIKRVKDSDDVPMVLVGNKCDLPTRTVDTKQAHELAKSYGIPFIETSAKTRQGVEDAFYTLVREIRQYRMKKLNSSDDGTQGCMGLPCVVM

Row | Structure (SMILES) | Kd [1] [nM] | IC50 [4] [nM] | NRAS /KRAS [2] | HRAS /KRAS [3]
1 | CCC[C@H]1C(=O)N[C@@H]([C@@H](C)CC)C(=O)N(C2CC2)CC(=O)N(C)[C@H]2C/C=C\CCN(C2=O)[C@@H](Cc2ccc(C(F)F)cc2)C(=O)N(C)CC(=O)N[C@@H](CCc2cc(F)c(C(F)(F)F)c(F)c2)C(=O)N2C[C@H](OCC)C[C@H]2C(=O)NC2(CC(C)(C)C2)C(=O)N(C)[C@@H](C(CC)CC)C(=O)N(C)[C@H](C(=O)N(C)C)CC(=O)N1C [PP2527] | 0.65 | 31 | AA (a compound having 20 or more is denoted as AA) | A (a compound having 10 or more and less than 20 is denoted as A)
2 | CCC[C@H]1C(=O)N[C@@H]([C@@H](C)CC)C(=O)N(C2CC2)CC(=O)N(C)[C@H]2C/C=C\CCN(C2=O)[C@@H](Cc2ccc(C(F)F)cc2)C(=O)N(C)CC(=O)N[C@@H](CCc2cc(F)c(C(F)(F)F)c(F)c2)C(=O)N2C[C@H](OC(C)C)C[C@H]2C(=O)NC2(CC(C)(C)C2)C(=O)N(C)[C@@H](C(CC)CC)C(=O)N(C)[C@H](C(=O)N(C)C)CC(=O)N1C [PP2529] | 0.77 | 64 | AA (a compound having 20 or more is denoted as AA) | A (a compound having 10 or more and less than 20 is denoted as A)
3 | CCC[C@H]1C(=O)N[C@@H](CC(C)C)C(=O)N(C2CC2)CC(=O)N(C)[C@H]2C/C=C\CCN(C2=O)[C@@H](Cc2ccc(C)cc2)C(=O)N(C)CC(=O)N[C@@H](CCc2cc(F)c(C(F)(F)F)c(F)c2)C(=O)N2C[C@H](OCC)C[C@H]2C(=O)NC2(CCC2)C(=O)N(C)[C@@H](C2CCCC2)C(=O)N(C)[C@H](C(=O)N(C)C)CC(=O)N1C [PP2532] | 4.1 | 144 | A (a compound having 10 or more and less than 20 is denoted as A) | B (a compound having 3 or more and less than 10 is denoted as B)
4 | CCC(CC)[C@H]1C(=O)N(C)[C@H](C(=O)N(C)C)CC(=O)N(C)[C@@H](COC)C(=O)N[C@@H]([C@@H](C)CC)C(=O)N(C)CC(=O)N(C)[C@H]2C/C=C\CCN(C2=O)[C@@H](Cc2ccc(C(F)(F)F)cc2)C(=O)N(C)CC(=O)N[C@@H](CCc2ccc(Cl)c(Cl)c2)C(=O)N2C[C@H](OC(C)C)C[C@H]2C(=O)NC2(CC(C)(C)C2)C(=O)N1C [PP2533] | 0.49 | 20 | AA (a compound having 20 or more is denoted as AA) | A (a compound having 10 or more and less than 20 is denoted as A)
5 | CCC[C@H]1C(=O)N[C@@H](CC(C)C)C(=O)N(C2CC2)CC(=O)N(C)[C@H]2C/C=C\CCN(C2=O)[C@@H](Cc2ccc(C)cc2)C(=O)N(C)CC(=O)N[C@@H](CCc2ccc(C(F)(F)F)c(OC)c2)C(=O)N2C[C@H](OCC)C[C@H]2C(=O)NC2(CCC2)C(=O)N(C)[C@@H](C2CCCC2)C(=O)N(C)[C@H](C(=O)N(C)C)CC(=O)N1C [PP2534] | 4.1 | 195 | A (a compound having 10 or more and less than 20 is denoted as A) | B (a compound having 3 or more and less than 10 is denoted as B)
6 | CCC[C@H]1C(=O)N[C@@H]([C@@H](C)CC)C(=O)N(C)CC(=O)N(C)[C@H]2C/C=C\CCN(C2=O)[C@@H](Cc2ccc(C(F)F)cc2)C(=O)N(C)CC(=O)N[C@@H](CCc2ccc(Cl)c(Cl)c2)C(=O)N2C[C@H](OC(C)C)C[C@H]2C(=O)NC2(CC(C)(C)C2)C(=O)N(C)[C@@H](C(CC)CC)C(=O)N(C)[C@H](C(=O)N(C)C)CC(=O)N1C [PP2535] | 0.54 | 26.8 | AA (a compound having 20 or more is denoted as AA) | A (a compound having 10 or more and less than 20 is denoted as A)
7 | CCC[C@H]1C(=O)N[C@@H]([C@@H](C)CC)C(=O)N(C)CC(=O)N(C)[C@H]2C/C=C\CCN(C2=O)[C@@H](Cc2ccc(C)cc2)C(=O)N(C)CC(=O)N[C@@H](CCc2ccc(Cl)c(Cl)c2)C(=O)N2C[C@H](OC(C)C)C[C@H]2C(=O)NC2(CC(C)(C)C2)C(=O)N(C)[C@@H](C(CC)CC)C(=O)N(C)[C@H](C(=O)N(C)C)CC(=O)N1C [PP2537] | 0.74 | 75.1 | AA (a compound having 20 or more is denoted as AA) | A (a compound having 10 or more and less than 20 is denoted as A)
8 | CCC[C@H]1C(=O)N[C@@H](CC(C)C)C(=O)N(CC)CC(=O)N(C)[C@H]2C/C=C\CCN(C2=O)[C@@H](Cc2ccc(C)cc2)C(=O)N(C)CC(=O)N[C@@H](CCc2cc(F)c(C(F)(F)F)c(F)c2)C(=O)N2C[C@H](OCC)C[C@H]2C(=O)NC2(CCC2)C(=O)N(C)[C@@H](C2CCCC2)C(=O)N(C)[C@H](C(=O)N(C)C)CC(=O)N1C [PP2539] | 4.3 | 330 | A (a compound having 10 or more and less than 20 is denoted as A) | B (a compound having 3 or more and less than 10 is denoted as B)
9 | CCC[C@H]1C(=O)N[C@@H](CC(C)C)C(=O)N2C[C@@H](OC)C[C@H]2C(=O)N(C)[C@H]2C/C=C\CCN(C2=O)[C@@H](Cc2ccc(C)cc2)C(=O)N(C)CC(=O)N[C@@H](CCc2ccc(C(F)(F)F)c(OC)c2)C(=O)N2C[C@H](OCC)C[C@H]2C(=O)NC2(CCC2)C(=O)N(C)[C@@H](C2CCCC2)C(=O)N(C)[C@H](C(=O)N(C)C)CC(=O)N1C [PP2548] | 7.8 | 1050 | A (a compound having 10 or more and less than 20 is denoted as A) | B (a compound having 3 or more and less than 10 is denoted as B)

Further lines, with some results ahead:

Row | Kd [1] [nM] | IC50 [4] [nM] | Structure (SMILES) | NRAS /KRAS [2] | HRAS /KRAS [3]
10 | 4.6 | 207 | CCC[C@H]1C(=O)N[C@@H](CC(C)C)C(=O)N(CC)CC(=O)N(C)[C@H]2C/C=C\CCN(C2=O)[C@@H](Cc2ccc(C)cc2)C(=O)N(C)CC(=O)N[C@@H](CCc2ccc(C(F)(F)F)c(Cl)c2)C(=O)N2C[C@H](OCC)C[C@H]2C(=O)NC2(CC(C)(C)C2)C(=O)N(C)[C@@H](C2CCCC2)C(=O)N(C)[C@H](C(=O)N(C)C)CC(=O)N1C [PP2528] | A (a compound having 10 or more and less than 20 is denoted as A) | B (a compound having 3 or more and less than 10 is denoted as B)
11 | 4.9 | 374 | CCC[C@H]1C(=O)N[C@@H](CC(C)C)C(=O)N(CCOC)CC(=O)N(C)[C@H]2C/C=C\CCN(C2=O)[C@@H](Cc2ccc(C)cc2)C(=O)N(C)CC(=O)N[C@@H](CCc2cc(F)c(C(F)(F)F)c(F)c2)C(=O)N2C[C@H](OCC)C[C@H]2C(=O)NC2(CCC2)C(=O)N(C)[C@@H](C2CCCC2)C(=O)N(C)[C@H](C(=O)N(C)C)CC(=O)N1C [PP2541] | A (a compound having 10 or more and less than 20 is denoted as A) | B (a compound having 3 or more and less than 10 is denoted as B)
12 | 4.6 | 394 | CCC[C@H]1C(=O)N[C@@H](CC(C)C)C(=O)N(CCOC)CC(=O)N(C)[C@H]2C/C=C\CCN(C2=O)[C@@H](Cc2ccc(C)cc2)C(=O)N(C)CC(=O)N[C@@H](CCc2ccc(C(F)(F)F)c(OC)c2)C(=O)N2C[C@H](OCC)C[C@H]2C(=O)NC2(CCC2)C(=O)N(C)[C@@H](C2CCCC2)C(=O)N(C)[C@H](C(=O)N(C)C)CC(=O)N1C [PP2542] | B (a compound having 3 or more and less than 10 is denoted as B) | B (a compound having 3 or more and less than 10 is denoted as B)
13 | 4.3 | 279 | CCC[C@H]1C(=O)N[C@@H](CC(C)C)C(=O)N(CC)CC(=O)N(C)[C@H]2C/C=C\CCN(C2=O)[C@@H](Cc2ccc(C)cc2)C(=O)N(C)CC(=O)N[C@@H](CCc2ccc(C(F)(F)F)c(Cl)c2)C(=O)N2C[C@H](OCC)C[C@H]2C(=O)NC2(CCC2)C(=O)N(C)[C@@H](C2CCCC2)C(=O)N(C)[C@H](C(=O)N(C)C)CC(=O)N1C [PP2545] | A (a compound having 10 or more and less than 20 is denoted as A) | A (a compound having 10 or more and less than 20 is denoted as A)
14 | 4.7 | 295 | CCC[C@H]1C(=O)N[C@@H](CC(C)C)C(=O)N(CCOC)CC(=O)N(C)[C@H]2C/C=C\CCN(C2=O)[C@@H](Cc2ccc(C)cc2)C(=O)N(C)CC(=O)N[C@@H](CCc2ccc(C(F)(F)F)c(Cl)c2)C(=O)N2C[C@H](OCC)C[C@H]2C(=O)NC2(CCC2)C(=O)N(C)[C@@H](C2CCCC2)C(=O)N(C)[C@H](C(=O)N(C)C)CC(=O)N1C [PP2546] | B (a compound having 3 or more and less than 10 is denoted as B) | B (a compound having 3 or more and less than 10 is denoted as B)
